# Patent publication US8692001B2, “Sulfonamides for the modulation of PKM2” (Dynamix Pharmaceuticals Ltd., priority 2010, dated 2014)
# Tests used:
# PKM2, human recombinant = biological target: T1, PKM2, human recombinant (Homo sapiens, UniProt P14618); assay: PKM2 enzymatic activity assay (Kinase-Glo Plus luminescence); format: biochemical; conditions: PKM2 activation; 0.1 nM PKM2, 0.1 mM ADP, 0.5 mM PEP, room temperature, 1 hour
# T1 construct: purchased BPS 50295
# Method: PKM2 performs the following enzymatic reaction, where the PKM2 substrates, PEP (phosphoenolpyruvate) and ADP, are converted to pyruvate and ATP as follows: PEP+ADP→Pyruvate+ATP. All of the enzymatic reactions were conducted in duplicates at room temperature for 1 hour in a 50 μL mixture containing:
# PKM2 assay buffer (50 mM Immidazole, pH 7.2; 7 mM MgCl2; 50 mM KCl; 0.01% Tween; and 0.05% BSA), 0.1 mM ADP, 0.5 mM PEP, 0.1 nM PKM2 enzyme (PKM2, human recombinant (BPS catalog number 50295)) and the indicated test compound.
# Fructose 1,6 biphosphate, (FBP (Sigma)) was used as a positive control for activation at concentration of 0.5 mM. After enzymatic reactions, 50 μL of Kinase-Glo® Plus reagent (Promega kit) was added to each well and luminescence was measured using a BioTek Synergy™ 2 microplate reader.
# PKM2 activity assays were performed in duplicates at each concentration. The luminescence data were analyzed using the computer software, GraphPad PRISM®. In the absence of the compound, the luminescence was defined as 0% activity. The percent activity in the presence of each compound was calculated according to the following equation: % Activity=[(L−Lb)/(Lt−Lb)−1]×100% where L=the luminescence in the presence of the test compound, Lb=the luminescence in the absence of PKM2, and Lt=the luminescence intensity in the absence of the test compound. The % activity values versus a series of compound concentrations were plotted using non-linear regression analysis of Sigmoidal dose-response curve generated with the equation Y=B+(T−B)/1+10^((LogEC50−X)×Hill Slope), where Y=percent activity, B=minimum percent activity, T=maximum percent activity, X=logarithm of compound and Hill Slope=slope factor or Hill coefficient. The EC50 value was determined for the indicated compounds as the concentration causing a half-maximal percent activity.
# [1] = test system: H1299 (Non small cell lung carcinoma cell line); assay: In vitro cell proliferation, Assay Protocol II (cell proliferation index, fluorescent membrane marker, flow cytometry); format: cell-based; conditions: Homo sapiens, NCI-H1299, as measured by Assay Protocol II
# Method: In a second assay to determine the inhibition of cell proliferation by a compound of the invention, cell proliferation of the cell line of interest was measured by a cell proliferation index assay using Fluofarma® based technology. This assay is based on the dilution rate of a fluorescent membrane marker, which is a direct function of the number of cell divisions. Briefly, the assay is performed by loading the cells with a non-toxic fluorescent phospholipid analog before the seeding. […] Flow cytometry analysis of the fluorescent probe is performed after the loading of the cells both prior to, as well as after treatment with various concentrations of the test compound. The dilution rate of the fluorescent probe at the single cell level is directly correlated to the number of cell divisions.
# [2] = test system: 786-O (Renal cancer cell line); assay: In vitro cell proliferation, Assay Protocol I (CellTiterGlo); format: cell-based; conditions: Homo sapiens, 786-0
# Method: (§1) Growth inhibitory activity against the human tumor cell lines of compounds of the invention was determined using Promega's CellTiterGlo® assay. The cell lines of interest were placed in a 96-well microculture plate (Costar® white, flat bottom #3917) in a total volume of 90 μL/well. After 24 hours of incubation in a humidified incubator at 37° C. with 5% CO2 and 95% air, 10 μL of serially diluted test compounds in growth medium were added to each well. After 96 total hours of culture in a CO2 incubator, the plated cells and CellTiter-Glo® (Promega # G7571) reagents were brought to room temperature to equilibrate for 30 minutes. 100 μL of CellTiter-Glo® reagent was added to each well. The plate was shaken for 2 minutes and then left to equilibrate for 10 minutes before reading luminescence on the Tecan GENios microplate reader.
# (§2) Percent inhibition of cell growth was calculated relative to untreated control wells. All tests were performed in triplicate for each concentration level. The IC50 value for the test compounds was estimated using Prism 3.03 by curve-fitting the data.
# [3] = test system: A549 (Non-small cell lung carcinoma cell line); assay: as above; format: cell-based; conditions: Homo sapiens
# Method: as §1, §2
# [4] = test system: Colo-205 (Colorectal cancer cell line); assay: as above; format: cell-based; conditions: Homo sapiens
# Method: as §1, §2
# [5] = test system: H1299 (Non small cell lung carcinoma cell line); assay: as above; format: cell-based; conditions: Homo sapiens, NCI-H1299, 96 total hours of culture
# Method: as §1, §2
# [6] = test system: HT-29 (Colorectal cancer cell line); assay: as above; format: cell-based; conditions: Homo sapiens
# Method: as §1, §2
# [7] = test system: HeLa (Cervical cancer cell line); assay: as above; format: cell-based; conditions: Homo sapiens
# Method: as §1, §2
# [8] = test system: HepG2 cancer cells (hepatocellular carcinoma cells); assay: Bioenergetic study, XF24 analyzer (OCR and ECAR); format: cell-based; conditions: HepG2 cells treated at 100 μM, recorded over an 8 hour period; FIG. 2
# Method: Bioenergetic studies were performed using XF24 analyzer (Seahorse Bioscience). Oxygen Consumption Rate (OCR), a measure of mitochondrial oxydative phosphorylation, and Extra-Cellular Acidification Rate (ECAR), which represents glycolysis, were recorded over an 8 hour period for cells treated with various test compounds at 100 μM.
# [9] = Cell proliferation and apoptosis over time (cell counts, caspase 3/7 assay), FIG. 3; format: cell-based
# Method: Additionally, the effect of 5-((2,3-dihydrobenzo[b][1,4]dioxin-6-yl)sulfonyl)-2-methyl-1-(methylsulfonyl)indoline on cell proliferation and apoptosis was measured and the results are shown in FIG. 3.
# T1 sequence (P14618 whole entry): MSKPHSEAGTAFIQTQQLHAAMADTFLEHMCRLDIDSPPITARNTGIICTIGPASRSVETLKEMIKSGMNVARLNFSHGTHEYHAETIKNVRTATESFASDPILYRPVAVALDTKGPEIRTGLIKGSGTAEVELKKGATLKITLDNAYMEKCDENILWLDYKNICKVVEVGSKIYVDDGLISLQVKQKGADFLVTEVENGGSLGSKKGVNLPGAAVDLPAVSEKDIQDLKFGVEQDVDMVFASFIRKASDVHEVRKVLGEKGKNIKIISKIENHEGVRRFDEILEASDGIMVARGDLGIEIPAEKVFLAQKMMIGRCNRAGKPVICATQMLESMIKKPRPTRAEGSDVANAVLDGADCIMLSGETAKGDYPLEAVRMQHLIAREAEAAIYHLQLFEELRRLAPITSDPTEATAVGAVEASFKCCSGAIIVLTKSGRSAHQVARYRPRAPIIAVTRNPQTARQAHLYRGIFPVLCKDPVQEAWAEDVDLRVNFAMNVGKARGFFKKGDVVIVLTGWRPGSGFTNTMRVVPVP
smiles,measurement,setting,value
"CC1Cc2cc(S(=O)(=O)c3ccc4c(c3)OCCO4)ccc2N1S(C)(=O)=O (stereo not drawn) [Compound 2A, 5-((2,3-dihydrobenzo[b][1,4]dioxin-6-yl)sulfonyl)-2-methyl-1-(methylsulfonyl)indoline]",EC50,"PKM2, human recombinant",1 to 10 µM
same,IC50,[1],< 40 µM
same,IC50,[2],< 30 µM
same,IC50,[3],< 50 µM
same,IC50,[4],< 30 µM
same,IC50,[5],< 10 µM
same,IC50,[6],> 100 µM
same,IC50,[7],< 60 µM
same,Metabolic activity (OCR and ECAR),[8],less metabolically active
same,Effect on cell proliferation (cell counts),"[9]; FIG. 3, as a function of time after treatment",induces a period of growth arrest
same,Cells that underwent apoptosis (caspase 3/7 assay),"[9]; by day 15, FIG. 3",up to 60%
CC(=O)N1c2ccc(S(=O)(=O)c3ccc4c(c3)OCCO4)cc2CC1C (stereo not drawn) [Compound 4A],EC50,"PKM2, human recombinant",1 to 10 µM
"CS(=O)(=O)N1Cc2ccc(S(=O)(=O)c3ccc4c(c3)OCCO4)cc2C1 [Compound 6A, 5-((2,3-dihydrobenzo[b][1,4]dioxin-6-yl)sulfonyl)-2-(methylsulfonyl)isoindoline]",IC50,[1],< 20 µM
CS(=O)(=O)N1CCCc2cc(S(=O)(=O)c3ccc4c(c3)OCCO4)ccc21 [Compound 7A],EC50,"PKM2, human recombinant",1 to 10 µM
CC(C)N(c1ccc(S(=O)(=O)c2ccc3c(c2)OCCO3)cc1)S(C)(=O)=O [Compound 10A],EC50,"PKM2, human recombinant",1 to 10 µM
"CS(=O)(=O)N1CCc2cc(S(=O)(=O)c3ccc4c(c3)OCCO4)ccc21 [Compound 11A, 5-((2,3-dihydrobenzo[b][1,4]dioxin-6-yl)sulfonyl)-1-(methylsulfonyl)indoline]",IC50,[5],< 20 µM
CCN(c1ccc(S(=O)(=O)c2ccc3c(c2)OCCO3)c(C)c1)S(C)(=O)=O [Compound 12A],EC50,"PKM2, human recombinant",1 to 10 µM
C[C@H]1Cc2cc(S(=O)(=O)c3ccc4c(c3)OCCO4)ccc2N1S(=O)(=O)Cc1ccccc1 [Compound 13A],EC50,"PKM2, human recombinant",1 to 10 µM
Cc1cn(S(C)(=O)=O)c2ccc(S(=O)(=O)c3ccc4c(c3)OCCO4)cc12 [Compound 21A],EC50,"PKM2, human recombinant",1 to 10 µM
CC1Cc2cc(S(=O)(=O)Nc3ccc4c(c3)OCCO4)ccc2N1S(C)(=O)=O (stereo not drawn) [Compound 23A],EC50,"PKM2, human recombinant",10 to 100 µM
CCN(c1ccc(S(=O)(=O)c2ccc3c(c2)OCCO3)cc1)S(C)(=O)=O [Compound 24A],EC50,"PKM2, human recombinant",10 to 100 µM
